Test results from the supplement of paper PMC13207355.
Counter-ions that a name gives are not always drawn.

Experiments:
Conditions in all cases: exposure time: 72 h
E13 [1] = patient-derived glioblastoma stem cells of classical subtype; experiment: phenotypic distance (Euclidean, principal components) from DMSO controls (arbitrary units); higher = stronger morphological change
E31 [2] = patient-derived glioblastoma stem cells of proneural subtype; experiment: as above
E28 [3] = patient-derived glioblastoma stem cells of classical subtype; experiment: as above
FT3469 [4] = normal neural stem cell line; experiment: as above
E34 [5] = patient-derived glioblastoma stem cells of proneural subtype; experiment: as above
E57 [6] = patient-derived glioblastoma stem cells of mesenchymal subtype; experiment: as above
E21 [7] = patient-derived glioblastoma stem cells of mesenchymal subtype; experiment: as above
E13 [8] = experiment: surviving fraction (nuclei count normalised to DMSO); higher = more cells surviving (less toxic)
E31 [9] = experiment: as above
E28 [10] = experiment: as above
FT3469 [11] = experiment: as above
E34 [12] = experiment: as above
E57 [13] = experiment: as above
E21 [14] = experiment: as above
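For phenotypic distance (Euclidean, principal components) from DMSO controls in this document: cell Painting imaging in 384-well plates, CellProfiler features reduced to at least 20 principal components, Euclidean distance versus same-plate DMSO vehicle wells (0.1% v/v), median over six images per well.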
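For surviving fraction (nuclei count normalised to DMSO) in this document: nuclei counted by high-content imaging of Hoechst-stained cells in laminin-coated 384-well plates, relative to 0.1% DMSO vehicle wells, with staurosporine as cell-death control.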

CC(=O)O[C@@]12CO[C@@H]1C[C@H](O)[C@@]1(C)C(=O)[C@H](O)C3=C(C)[C@@H](OC(=O)[C@H](O)[C@@H](NC(=O)OC(C)(C)C)c4ccccc4)C[C@@](O)([C@@H](OC(=O)c4ccccc4)[C@H]21)C3(C)C [Docetaxel]
Conditions	phenotypic distance	surviving fraction
E13 [1], 4.1 nM	5.48	–
E13 [1], 12.3 nM	5.06	–
E13 [1], 37 nM	5.13	–
E13 [1], 111.1 nM	5.06	–
E13 [1], 333.3 nM	5.38	–
E13 [1], 1000 nM	5.66	–
E13 [1], 3000 nM	5.29	–
E13 [8], 4.1 nM	–	0.244
E13 [8], 12.3 nM	–	0.245
E13 [8], 37 nM	–	0.23
E13 [8], 111.1 nM	–	0.267
E13 [8], 333.3 nM	–	0.26
E13 [8], 1000 nM	–	0.245
E13 [8], 3000 nM	–	0.233
E21 [7], 4.1 nM	5.81	–
E21 [7], 12.3 nM	6.42	–
E21 [7], 37 nM	6.23	–
E21 [7], 111.1 nM	6.28	–
E21 [7], 333.3 nM	6.05	–
E21 [7], 1000 nM	6.55	–
E21 [7], 3000 nM	6.95	–
E21 [14], 4.1 nM	–	0.256
E21 [14], 12.3 nM	–	0.291
E21 [14], 37 nM	–	0.273
E21 [14], 111.1 nM	–	0.267
E21 [14], 333.3 nM	–	0.324
E21 [14], 1000 nM	–	0.366
E21 [14], 3000 nM	–	0.306
E28 [3], 4.1 nM	3.2	–
E28 [3], 12.3 nM	3.04	–
E28 [3], 37 nM	3.71	–
E28 [3], 111.1 nM	4	–
E28 [3], 333.3 nM	4.1	–
E28 [3], 1000 nM	3.51	–
E28 [3], 3000 nM	3.95	–
E28 [10], 4.1 nM	–	0.337
E28 [10], 12.3 nM	–	0.342
E28 [10], 37 nM	–	0.315
E28 [10], 111.1 nM	–	0.374
E28 [10], 333.3 nM	–	0.359
E28 [10], 1000 nM	–	0.377
E28 [10], 3000 nM	–	0.43
E31 [2], 4.1 nM	3.61	–
E31 [2], 12.3 nM	4.17	–
E31 [2], 37 nM	4.04	–
E31 [2], 111.1 nM	3.51	–
E31 [2], 333.3 nM	4.45	–
E31 [2], 1000 nM	4.14	–
E31 [2], 3000 nM	3.26	–
E31 [9], 4.1 nM	–	0.175
E31 [9], 12.3 nM	–	0.112
E31 [9], 37 nM	–	0.146
E31 [9], 111.1 nM	–	0.157
E31 [9], 333.3 nM	–	0.134
E31 [9], 1000 nM	–	0.164
E31 [9], 3000 nM	–	0.2
E34 [5], 4.1 nM	4.14	–
E34 [5], 12.3 nM	3.76	–
E34 [5], 37 nM	3.17	–
E34 [5], 111.1 nM	3.96	–
E34 [5], 333.3 nM	3.99	–
E34 [5], 1000 nM	3.89	–
E34 [5], 3000 nM	3.75	–
E34 [12], 4.1 nM	–	0.43
E34 [12], 12.3 nM	–	0.452
E34 [12], 37 nM	–	0.497
E34 [12], 111.1 nM	–	0.38
E34 [12], 333.3 nM	–	0.438
E34 [12], 1000 nM	–	0.423
E34 [12], 3000 nM	–	0.551
E57 [6], 4.1 nM	5.76	–
E57 [6], 12.3 nM	5.68	–
E57 [6], 37 nM	5.22	–
E57 [6], 111.1 nM	5.42	–
E57 [6], 333.3 nM	5.4	–
E57 [6], 1000 nM	5.4	–
E57 [6], 3000 nM	5.26	–
E57 [13], 4.1 nM	–	0.0834
E57 [13], 12.3 nM	–	0.0809
E57 [13], 37 nM	–	0.078
E57 [13], 111.1 nM	–	0.0677
E57 [13], 333.3 nM	–	0.0873
E57 [13], 1000 nM	–	0.0902
E57 [13], 3000 nM	–	0.109
FT3469 [4], 4.1 nM	4.07	–
FT3469 [4], 12.3 nM	4.02	–
FT3469 [4], 37 nM	3.93	–
FT3469 [4], 111.1 nM	4.46	–
FT3469 [4], 333.3 nM	4.18	–
FT3469 [4], 1000 nM	4.11	–
FT3469 [4], 3000 nM	4.57	–
FT3469 [11], 4.1 nM	–	0.529
FT3469 [11], 12.3 nM	–	0.614
FT3469 [11], 37 nM	–	0.452
FT3469 [11], 111.1 nM	–	0.513
FT3469 [11], 333.3 nM	–	0.572
FT3469 [11], 1000 nM	–	0.497
FT3469 [11], 3000 nM	–	0.556

COc1cccc2c1C(=O)c1c(O)c3c(c(O)c1C2=O)C[C@@](O)(C(=O)CO)C[C@@H]3O[C@H]1C[C@H](N)[C@H](O)[C@H](C)O1 [Doxorubicin hydrochloride]
Conditions	phenotypic distance	surviving fraction
E13 [1], 4.1 nM	2.25	–
E13 [1], 12.3 nM	3.82	–
E13 [1], 37 nM	5.4	–
E13 [1], 111.1 nM	6.04	–
E13 [1], 333.3 nM	6.31	–
E13 [1], 1000 nM	6.48	–
E13 [1], 3000 nM	6.01	–
E13 [8], 4.1 nM	–	0.639
E13 [8], 12.3 nM	–	0.527
E13 [8], 37 nM	–	0.409
E13 [8], 111.1 nM	–	0.265
E13 [8], 333.3 nM	–	0.188
E13 [8], 1000 nM	–	0.0799
E13 [8], 3000 nM	–	0.0133
E21 [7], 4.1 nM	1.5	–
E21 [7], 12.3 nM	4.4	–
E21 [7], 37 nM	6.35	–
E21 [7], 111.1 nM	5.11	–
E21 [7], 333.3 nM	5.4	–
E21 [7], 1000 nM	5.92	–
E21 [7], 3000 nM	6.77	–
E21 [14], 4.1 nM	–	0.799
E21 [14], 12.3 nM	–	0.544
E21 [14], 37 nM	–	0.428
E21 [14], 111.1 nM	–	0.237
E21 [14], 333.3 nM	–	0.17
E21 [14], 1000 nM	–	0.0999
E21 [14], 3000 nM	–	0.0192
E28 [3], 4.1 nM	2.14	–
E28 [3], 12.3 nM	2.39	–
E28 [3], 37 nM	2.6	–
E28 [3], 111.1 nM	3.51	–
E28 [3], 333.3 nM	3.16	–
E28 [3], 1000 nM	3.08	–
E28 [3], 3000 nM	5.26	–
E28 [10], 4.1 nM	–	0.535
E28 [10], 12.3 nM	–	0.403
E28 [10], 37 nM	–	0.341
E28 [10], 111.1 nM	–	0.163
E28 [10], 333.3 nM	–	0.174
E28 [10], 1000 nM	–	0.35
E28 [10], 3000 nM	–	0.0586
E31 [2], 4.1 nM	2.91	–
E31 [2], 12.3 nM	2.49	–
E31 [2], 37 nM	2.07	–
E31 [2], 111.1 nM	2.28	–
E31 [2], 333.3 nM	4.77	–
E31 [2], 1000 nM	5.51	–
E31 [2], 3000 nM	5.71	–
E31 [9], 4.1 nM	–	0.425
E31 [9], 12.3 nM	–	0.381
E31 [9], 37 nM	–	0.269
E31 [9], 111.1 nM	–	0.186
E31 [9], 333.3 nM	–	0.105
E31 [9], 1000 nM	–	0.0519
E31 [9], 3000 nM	–	0.0645
E34 [5], 4.1 nM	0.849	–
E34 [5], 12.3 nM	3.53	–
E34 [5], 37 nM	4.3	–
E34 [5], 111.1 nM	3.08	–
E34 [5], 333.3 nM	2.7	–
E34 [5], 1000 nM	5.02	–
E34 [5], 3000 nM	4.21	–
E34 [12], 4.1 nM	–	0.738
E34 [12], 12.3 nM	–	0.599
E34 [12], 37 nM	–	0.502
E34 [12], 111.1 nM	–	0.539
E34 [12], 333.3 nM	–	0.502
E34 [12], 1000 nM	–	0.346
E34 [12], 3000 nM	–	0.123
E57 [6], 4.1 nM	1.85	–
E57 [6], 12.3 nM	4.6	–
E57 [6], 37 nM	8.27	–
E57 [6], 111.1 nM	7.23	–
E57 [6], 333.3 nM	7.01	–
E57 [6], 1000 nM	7.35	–
E57 [6], 3000 nM	7.3	–
E57 [13], 4.1 nM	–	0.74
E57 [13], 12.3 nM	–	0.411
E57 [13], 37 nM	–	0.229
E57 [13], 111.1 nM	–	0.172
E57 [13], 333.3 nM	–	0.164
E57 [13], 1000 nM	–	0.113
E57 [13], 3000 nM	–	0.0765
FT3469 [4], 4.1 nM	1.83	–
FT3469 [4], 12.3 nM	1.46	–
FT3469 [4], 37 nM	1.66	–
FT3469 [4], 111.1 nM	1.6	–
FT3469 [4], 333.3 nM	4.2	–
FT3469 [4], 1000 nM	3	–
FT3469 [4], 3000 nM	8.29	–
FT3469 [11], 4.1 nM	–	0.574
FT3469 [11], 12.3 nM	–	0.678
FT3469 [11], 37 nM	–	0.598
FT3469 [11], 111.1 nM	–	0.582
FT3469 [11], 333.3 nM	–	0.234
FT3469 [11], 1000 nM	–	0.149
FT3469 [11], 3000 nM	–	0.0213
